Series [1] concerns the target T1, Orf2 (Streptomyces tendae, UniProt A0ABX5ZPB3, D147A).
T1 construct: gene F3L20_11885; full-length orf2 (744 bp) in pET30a(+), His-tagged (mutants in pET28a), E. coli BL21(DE3), Ni-NTA
The experiment in a line: absorbance at […] nm, activity assay. It is filed as biochemical. To be noted: 50 mM imidazole pH 7.5, 40 °C; substrate of the standard assay, not named again for the mutants.

In series [2] the target is T2, Orf2 (Streptomyces tendae, UniProt A0ABX5ZPB3, S134A).
T2 construct: gene F3L20_11885; full-length orf2 (744 bp) in pET30a(+), His-tagged (mutants in pET28a), E. coli BL21(DE3), Ni-NTA
The experiment in a line: absorbance at […] nm, activity assay. The series is classed as biochemical. The following applies: 50 mM imidazole pH 7.5, 40 °C; substrate of the standard assay, not named again for the mutants.

Series [3] deals with T3, Orf2 (Streptomyces tendae, UniProt A0ABX5ZPB3, H170A).
T3 construct: gene F3L20_11885; full-length orf2 (744 bp) in pET30a(+), His-tagged (mutants in pET28a), E. coli BL21(DE3), Ni-NTA
The experiment in a line: absorbance at […] nm, activity assay. It is filed as biochemical. To be noted: 50 mM imidazole pH 7.5, 40 °C; substrate of the standard assay, not named again for the mutants.

The target of series [4] is T4, Orf2 (Streptomyces tendae, UniProt A0ABX5ZPB3, D198A).
T4 construct: gene F3L20_11885; full-length orf2 (744 bp) in pET30a(+), His-tagged (mutants in pET28a), E. coli BL21(DE3), Ni-NTA
The experiment in a line: absorbance at […] nm, activity assay. It is filed as biochemical. To be noted: 50 mM imidazole pH 7.5, 40 °C; substrate of the standard assay, not named again for the mutants.

Substrate in the series “purified protein”: N[C@@H](CC(=O)O)C(=O)Nc1ccc([N+](=O)[O-])cc1
The experiment in a line: purified protein. It is filed as biochemical, Streptomyces tendae. The following applies: 50 mM imidazole pH 7.5, 40 °C, 10 min, substrate 3.91-500 μM, hydrolysis of chromogenic substrate.

T3 sequence (A0ABX5ZPB3 entry or part of it H170A): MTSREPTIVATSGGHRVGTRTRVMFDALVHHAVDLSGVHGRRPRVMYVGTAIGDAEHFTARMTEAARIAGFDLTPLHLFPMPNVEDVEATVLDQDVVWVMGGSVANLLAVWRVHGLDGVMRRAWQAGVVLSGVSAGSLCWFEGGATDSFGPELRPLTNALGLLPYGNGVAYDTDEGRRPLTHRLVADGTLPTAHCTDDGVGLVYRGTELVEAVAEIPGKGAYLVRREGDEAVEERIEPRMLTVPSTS
T2 sequence (A0ABX5ZPB3 entry or part of it S134A): as the sequence (A0ABX5ZPB3 entry or part of it H170A) above, with S134A, A170H counted along it
T4 sequence (A0ABX5ZPB3 entry or part of it D198A): as the sequence (A0ABX5ZPB3 entry or part of it H170A) above, with A170H, D198A counted along it
T1 sequence (A0ABX5ZPB3 entry or part of it D147A): as the sequence (A0ABX5ZPB3 entry or part of it H170A) above, with D147A, A170H counted along it

`N[C@@H](CC(=O)O)C(=O)Nc1ccc([N+](=O)[O-])cc1` [Asp-ρNA]: the “absorbance at 405 nm, activity assay” value on Orf2 [1], at Orf2 [2], on Orf2 [3] and at Orf2 [4] was “all of these mutant proteins lost their activity (data not shown)” in each case.

B1: Orf2 (Streptomyces tendae) (protein)
chain: MTSREPTIVATSGGHRVGTRTRVMFDALVHHAVDLSGVHGRRPRVMYVGTAIGDAEHFTARMTEAARIAGFDLTPLHLFPMPNVEDVEATVLDQDVVWVMGGSVANLLAVWRVHGLDGVMRRAWQAGVVLSGVSAGSLCWFEGGATDSFGPELRPLTNALGLLPYGNGVHYDTDEGRRPLTHRLVADGTLPTAHCTDDGVGLVYRGTELVEAVAEIPGKGAYLVRREGDEAVEERIEPRMLTVPSTS
notes: full-length orf2 (744 bp) in pET30a(+), His-tagged (mutants in pET28a), E. coli BL21(DE3), Ni-NTA
As usually defined, the Km is the concentration of substrate that gives half-maximal velocity. Usually kcat stands for the number of substrate molecules converted per active site and unit of time at saturation. Consider B1, for which, in the series “purified protein”, the Km was determined as 1.709 mM and the kcat worked out at 5.628 s⁻¹.

For the origin of these results see publication PMC11078827, “Characterization and functional evidence for Orf2 of Streptomyces sp. 139 as a novel dipeptidase E” (Applied Microbiology and Biotechnology, 2024).
